Measurements as given in the supplement of paper PMC11061612.

Assays:
[1] = system: HTC-C3 (Thyroid Gland Carcinoma); experiment: combination Emax (second highest fraction inhibited in the dose matrix, 72 h); higher = more inhibition; extreme values may be limits of the assay
In short: (§1)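 Cell lines grown in DMEM/F12 or RPMI with 10% FBS were plated in 1536-well plates and held 24 hours at 37°C, 5% CO2 before 72 hours of exposure to two-drug dose matrices, with DMSO typically at 0.2%. CellTiter-Glo 2.0 luminescence gave viability, which was converted to inhibition. Vehicle wells were set to 0 and blank wells to 1. Combination Emax is the second-highest inhibition in the matrix, and Bliss excess is the observed combination effect minus the expected EA + EB − EA·EB, where EA and EB are the single-agent effects.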

[2] = system: PC-14 (Lung Adenocarcinoma); experiment: as above
In short: as §1

[3] = system: RL95-2 (Endometrial Carcinoma); experiment: as above
In short: as §1

[4] = system: Calu-6 (Non-Small Cell Lung Carcinoma); experiment: as above
In short: as §1

[5] = system: LAMA-84 (Chronic Myelogenous Leukemia); experiment: as above
In short: as §1

[6] = system: CML-T1 (Chronic Myelogenous Leukemia); experiment: as above
In short: as §1

[7] = system: NCI-H1155 (Non-Small Cell Lung Carcinoma); experiment: as above
In short: as §1

CHL-1 (Melanoma) = experiment: as above
In short: as §1

[8] = system: OV-90 (Ovarian Carcinoma); experiment: as above
In short: as §1

[9] = system: AN3-CA (Endometrial Carcinoma); experiment: as above
In short: as §1

[10] = system: JHH-1 (Hepatocellular Carcinoma); experiment: as above
In short: as §1

[11] = system: LOUCY (T-Lymphoblastic Leukemia); experiment: as above
In short: as §1

[12] = system: BALL-1 (B-Lymphoblastic Leukemia); experiment: as above
In short: as §1

[13] = system: OCI-AML5 (Acute Myeloid Leukemia); experiment: as above
In short: as §1

[14] = system: Becker (Low Grade Glioma); experiment: as above
In short: as §1

[15] = system: NCI-H196 (Small Cell Lung Carcinoma); experiment: as above
In short: as §1

[16] = system: NCI-H1755 (Lung Adenocarcinoma); experiment: as above
In short: as §1

RT4 (Bladder Carcinoma) [17] = experiment: as above
In short: as §1

[18] = system: HTC-C3 (Thyroid Gland Carcinoma); experiment: Bliss excess, mean over the matrix (fraction); higher = more synergy
In short: as §1

RT4 (Bladder Carcinoma) [19] = experiment: as above
In short: as §1
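Throughout, for Bliss excess, mean over the matrix: after 72 h of two-drug dosing.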

Row | SMILES | combination Emax [1] | combination Emax [2] | combination Emax [3] | combination Emax [4] | combination Emax [5] | combination Emax [6] | combination Emax [7] | combination Emax (CHL-1 (Melanoma)) | combination Emax [8] | combination Emax [9] | combination Emax [10] | combination Emax [11] | combination Emax [12] | combination Emax [13] | combination Emax [14] | combination Emax [15] | combination Emax [16] | combination Emax (RT4 (Bladder Carcinoma) [17]) | Bliss excess [18] | Bliss excess (RT4 (Bladder Carcinoma) [19])
1 | COc1nnc2ccc(N3CCC(c4ccc(OCCN5CCN(C)C(=O)[C@H]5C)cc4)CC3)nn12 [AZD5153] + CC1(C)CCC(CN2CCN(c3ccc(C(=O)NS(=O)(=O)c4ccc(NCC5CCOCC5)c([N+](=O)[O-])c4)c(Oc4cnc5[nH]ccc5c4)c3)CC2)=C(c2ccc(Cl)cc2)C1 [Venetoclax] (first compound max 1 µM, 7x7, partner max 1 µM) | 0.763 | 0.419 | 0.426 | 0.157 | 0.82 | 0.443 | 0.71 | 0.531 | 0.387 | 0.2 | 0.391 | 1 | 1 | 1 | 0.334 | 0.32 | 0.454 | 0.483 | -0.0648 | -0.019
2 | COc1nnc2ccc(N3CCC(c4ccc(OCCN5CCN(C)C(=O)[C@H]5C)cc4)CC3)nn12 [AZD5153] + CCN(CCO)CCCOc1ccc2c(Nc3cc(CC(=O)Nc4cccc(F)c4)[nH]n3)ncnc2c1 [AZD2811] (first compound max 1 µM, 7x7, partner max 1 µM) | 0.818 | 0.5 | 0.524 | 0.301 | 0.892 | 0.684 | 0.726 | 0.58 | 0.352 | 0.297 | 0.446 | 0.97 | 0.948 | 0.985 | 0.423 | 0.314 | 0.654 | 0.516 | -0.05 | -0.0391
3 | COc1nnc2ccc(N3CCC(c4ccc(OCCN5CCN(C)C(=O)[C@H]5C)cc4)CC3)nn12 [AZD5153] + C[C@@H]1COCCN1C2=NC(=NC(=C2)C3(CC3)[S@](=N)(=O)C)C4=C5C=CNC5=NC=C4 [AZD6738] (first compound max 1 µM, 7x7, partner max 10 µM) | 0.845 | 0.85 | 0.733 | 0.87 | 0.97 | 0.976 | 0.942 | 0.747 | 0.563 | 0.55 | 0.663 | 0.997 | 1 | 0.95 | 0.536 | 0.329 | 0.874 | 0.708 | -0.0187 | 0.0449
4 | COc1nnc2ccc(N3CCC(c4ccc(OCCN5CCN(C)C(=O)[C@H]5C)cc4)CC3)nn12 [AZD5153] + Cc1c2c(nn1C)CSCc1cc(n(C)n1)CSc1cc(c3ccccc3c1)OCCCc1c(C(=O)O)n(C)c3c-2c(Cl)ccc13 [AZD5991] (first compound max 1 µM, 7x7, partner max 1 µM) | 0.745 | 0.441 | 0.928 | 0.24 | 0.928 | 0.523 | 0.646 | 0.985 | 0.365 | 0.544 | 0.906 | 0.997 | 0.98 | 0.997 | 0.484 | 0.307 | 0.446 | 0.911 | -0.0441 | 0.0009
5 | COc1nnc2ccc(N3CCC(c4ccc(OCCN5CCN(C)C(=O)[C@H]5C)cc4)CC3)nn12 [AZD5153] + Cn1cnc2c(F)c(Nc3ccc(Br)cc3Cl)c(C(=O)NOCCO)cc21 [Selumetinib] (first compound max 1 µM, 7x7, partner max 10 µM) | 0.804 | 0.589 | 0.66 | 0.854 | 1 | 0.452 | 0.686 | 0.666 | 0.817 | 0.268 | 0.693 | 0.729 | 0.859 | 1 | 0.388 | 0.276 | 0.564 | 0.686 | -0.0464 | 0.0073
6 | Cc1c2c(nn1C)CSCc1cc(n(C)n1)CSc1cc(c3ccccc3c1)OCCCc1c(C(=O)O)n(C)c3c-2c(Cl)ccc13 [AZD5991] + C1CN(CCC1(C(=O)N[C@@H](CCO)C2=CC=C(C=C2)Cl)N)C3=NC=NC4=C3C=CN4 [Capivasertib] (first compound max 1 µM, 7x7, partner max 3 µM) | 0.179 | 0.26 | 1 | 0.192 | 0.189 | 0.0638 | 0.525 | 0.275 | 0.241 | 0.951 | 0.373 | 0.926 | 0.65 | 1 | 0.308 | 0.196 | 0.338 | 0.22 | -0.0091 | 0.023
7 | Cc1c2c(nn1C)CSCc1cc(n(C)n1)CSc1cc(c3ccccc3c1)OCCCc1c(C(=O)O)n(C)c3c-2c(Cl)ccc13 [AZD5991] + C=CCn1c(=O)c2cnc(Nc3ccc(N4CCN(C)CC4)cc3)nc2n1-c1cccc(C(C)(C)O)n1 [AZD1775] (first compound max 1 µM, partner max 1 µM) | 0.454 | 0.921 | 1 | 0.77 | 0.968 | 0.938 | 0.786 | 0.745 | 0.521 | 0.637 | 0.721 | 1 | 1 | 1 | 0.224 | 0.508 | 0.79 | 0.53 | 0.0091 | 0.0351
8 | Cc1c2c(nn1C)CSCc1cc(n(C)n1)CSc1cc(c3ccccc3c1)OCCCc1c(C(=O)O)n(C)c3c-2c(Cl)ccc13 [AZD5991] + CC1(C)CCC(CN2CCN(c3ccc(C(=O)NS(=O)(=O)c4ccc(NCC5CCOCC5)c([N+](=O)[O-])c4)c(Oc4cnc5[nH]ccc5c4)c3)CC2)=C(c2ccc(Cl)cc2)C1 [Venetoclax] (first compound max 1 µM, 7x7, partner max 1 µM) | 0.147 | 0.245 | 0.943 | 0.215 | 0.183 | 0.779 | 0.379 | 0.968 | 0.246 | 0.835 | 0.963 | 1 | 1 | 1 | 0.124 | 0.23 | 0.212 | 0.959 | -0.0396 | 0.135
9 | Cc1c2c(nn1C)CSCc1cc(n(C)n1)CSc1cc(c3ccccc3c1)OCCCc1c(C(=O)O)n(C)c3c-2c(Cl)ccc13 [AZD5991] + CCN(CCO)CCCOc1ccc2c(Nc3cc(CC(=O)Nc4cccc(F)c4)[nH]n3)ncnc2c1 [AZD2811] (first compound max 1 µM, 7x7, partner max 1 µM) | 0.235 | 0.371 | 1 | 0.361 | 0.636 | 0.389 | 0.897 | 0.933 | 0.262 | 0.584 | 0.517 | 0.983 | 0.875 | 1 | 0.147 | 0.222 | 0.619 | 0.913 | 0.0318 | 0.11
10 | Cc1c2c(nn1C)CSCc1cc(n(C)n1)CSc1cc(c3ccccc3c1)OCCCc1c(C(=O)O)n(C)c3c-2c(Cl)ccc13 [AZD5991] + C[C@@H]1COCCN1C2=NC(=NC(=C2)C3(CC3)[S@](=N)(=O)C)C4=C5C=CNC5=NC=C4 [AZD6738] (first compound max 1 µM, 7x7, partner max 10 µM) | 0.686 | 0.855 | 1 | 0.822 | 0.966 | 0.96 | 0.849 | 0.906 | 0.51 | 0.823 | 0.686 | 0.993 | 1 | 1 | 0.632 | 0.367 | 0.854 | 0.536 | -0.0103 | 0.0537
11 | Cc1c2c(nn1C)CSCc1cc(n(C)n1)CSc1cc(c3ccccc3c1)OCCCc1c(C(=O)O)n(C)c3c-2c(Cl)ccc13 [AZD5991] + C[C@@H](Nc1cc(F)cc(F)c1)c1cc(C(=O)N(C)C)cc2c(=O)cc(N3CCOCC3)oc12 [AZD8186] (first compound max 1 µM, 7x7, partner max 3 µM) | 0.277 | 0.255 | 0.95 | 0.222 | 0.12 | 0.103 | 0.33 | 0.485 | 0.214 | 0.899 | 0.462 | 0.47 | 0.374 | 1 | 0.462 | 0.282 | 0.418 | 0.286 | -0.014 | 0.0434
12 | Cc1c2c(nn1C)CSCc1cc(n(C)n1)CSc1cc(c3ccccc3c1)OCCCc1c(C(=O)O)n(C)c3c-2c(Cl)ccc13 [AZD5991] + Cc1cc2ncnn2cc1Nc1ncc2c(n1)n(C1CCOCC1)c(=O)n2C [AZD7648] (first compound max 1 µM, 7x7, partner max 10 µM) | 0.245 | 0.27 | 0.999 | 0.29 | 0.22 | 0.332 | 0.257 | 0.346 | 0.257 | 0.654 | 0.35 | 0.82 | 0.556 | 1 | 0.177 | 0.219 | 0.418 | 0.358 | -0.0558 | -0.0301
13 | C[C@@H]1COCCN1c1cc(C2([S@](C)(=N)=O)CC2)nc(-c2ccnc3[nH]ccc23)n1 [AZD6738] + O=C(c1cc(Cc2n[nH]c(=O)c3ccccc23)ccc1F)N1CCN(C(=O)C2CC2)CC1 [Olaparib] (first compound max 10 µM, 7x7, partner max 10 µM) | 0.83 | 0.816 | 0.641 | 0.684 | 0.961 | 0.966 | 0.825 | 0.577 | 0.537 | 0.577 | 0.458 | 0.974 | 0.983 | 0.907 | 0.601 | 0.347 | 0.793 | 0.443 | 0.0226 | 0.0357
